Data reported in PMC6586010 (Journal of Clinical Pharmacology, 2018).
Like-named read-outs stand apart in the source and are kept apart here.

What was measured:
[1] = format: in vivo, human; conditions: part 1
CYP3A5 = conditions: human liver microsomes of CYP3A5*1/*1 (EM) donors; cited from earlier work
HIV‐1 [2] = assay: Study 1; format: in vivo; conditions: for subjects who discontinued the study because of lack of efficacy: through week 96, maraviroc
HIV‐1 [3] = conditions: 48 weeks, cited from earlier work
HIV‐1 [4] = conditions: study 1; cited from earlier work
HIV = conditions: viral inhibition; cited from earlier work
[5] = week 48, efavirenz 600 mg once daily + zidovudine/lamivudine, EMs (2 CYP3A5*1 alleles)
[6] = week 48, efavirenz 600 mg once daily + zidovudine/lamivudine, IMs (1 CYP3A5*1 allele)
[7] = week 48, efavirenz 600 mg once daily + zidovudine/lamivudine, PMs (no CYP3A5*1 alleles)
[8] = week 48, efavirenz 600 mg once daily + zidovudine/lamivudine, overall
[9] = week 96, efavirenz 600 mg once daily + zidovudine/lamivudine, EMs (2 CYP3A5*1 alleles)
[10] = week 96, efavirenz 600 mg once daily + zidovudine/lamivudine, IMs (1 CYP3A5*1 allele)
[11] = week 96, efavirenz 600 mg once daily + zidovudine/lamivudine, PMs (no CYP3A5*1 alleles)
[12] = week 96, efavirenz 600 mg once daily + zidovudine/lamivudine, overall
[13] = week 48, maraviroc 300 mg twice daily + zidovudine/lamivudine, EMs (2 CYP3A5*1 alleles)
[14] = week 48, maraviroc 300 mg twice daily + zidovudine/lamivudine, IMs (1 CYP3A5*1 allele)
[15] = week 48, maraviroc 300 mg twice daily + zidovudine/lamivudine, PMs (no CYP3A5*1 alleles)
[16] = week 48, maraviroc 300 mg twice daily + zidovudine/lamivudine, overall
[17] = week 96, maraviroc 300 mg twice daily + zidovudine/lamivudine, EMs (2 CYP3A5*1 alleles)
[18] = week 96, maraviroc 300 mg twice daily + zidovudine/lamivudine, IMs (1 CYP3A5*1 allele)
[19] = week 96, maraviroc 300 mg twice daily + zidovudine/lamivudine, PMs (no CYP3A5*1 alleles)
[20] = week 96, maraviroc 300 mg twice daily + zidovudine/lamivudine, overall

Cc1nnc(C(C)C)n1C1C[C@H]2CC[C@@H](C1)N2CC[C@H](NC(=O)[C@H]1CCC(F)(F)[C@H](O)C1)c1ccccc1 (stereo partly drawn) [(1S,3R)-3-hydroxymaraviroc, (1S,3R)‐3‐hydroxymaraviroc]
mean MRAUC12 across all cohorts [1]: comparable
CYP3A5 contribution to the formation of this metabolite (CYP3A5): minimal

O=C1Nc2ccc(Cl)cc2[C@@](C#CC2CC2)(C(F)(F)F)O1 [Efavirenz]
Proportion of subjects with HIV-1 RNA <50 copies/mL (HIV‐1 [2]; [5]): 19/30 (63.3) %
Proportion of subjects with HIV-1 RNA <400 copies/mL (HIV‐1 [2]; [5]): 20/30 (66.7) %
Proportion of subjects with HIV-1 RNA <50 copies/mL (HIV‐1 [2]; [6]): 68/96 (70.8) %
Proportion of subjects with HIV-1 RNA <400 copies/mL (HIV‐1 [2]; [6]): 71/96 (74.0) %
Proportion of subjects with HIV-1 RNA <50 copies/mL (HIV‐1 [2]; [7]): 113/164 (68.9) %
Proportion of subjects with HIV-1 RNA <400 copies/mL (HIV‐1 [2]; [7]): 119/164 (72.6) %
Proportion of subjects with HIV-1 RNA <50 copies/mL (HIV‐1 [2]; [8]): 200/290 (69.0) %
Proportion of subjects with HIV-1 RNA <400 copies/mL (HIV‐1 [2]; [8]): 210/290 (72.4) %
Proportion of subjects with HIV-1 RNA <50 copies/mL (HIV‐1 [2]; [9]): 17/30 (56.7) %
Proportion of subjects with HIV-1 RNA <400 copies/mL (HIV‐1 [2]; [9]): 17/30 (56.7) %
Proportion of subjects with HIV-1 RNA <50 copies/mL (HIV‐1 [2]; [10]): 62/96 (64.6) %
Proportion of subjects with HIV-1 RNA <400 copies/mL (HIV‐1 [2]; [10]): 63/96 (65.6) %
Proportion of subjects with HIV-1 RNA <50 copies/mL (HIV‐1 [2]; [11]): 104/164 (63.4) %
Proportion of subjects with HIV-1 RNA <400 copies/mL (HIV‐1 [2]; [11]): 107/164 (65.2) %
Proportion of subjects with HIV-1 RNA <50 copies/mL (HIV‐1 [2]; [12]): 183/290 (63.1) %
Proportion of subjects with HIV-1 RNA <400 copies/mL (HIV‐1 [2]; [12]): 187/290 (64.5) %

CC(C)c1nnc(CO)n1C1C[C@H]2CC[C@@H](C1)N2CC[C@H](NC(=O)C1CCC(F)(F)CC1)c1ccccc1 (some centres unmarked) [hydroxymethylmaraviroc]
CYP3A5 contribution to the formation of this metabolite (CYP3A5): 1%

(1R,2R)‐2‐hydroxymaraviroc [(1R,2R)-2-hydroxymaraviroc]
mean MRAUC12 among black IMs and PMs and white PMs [1]: comparable
CYP3A5 contribution to the formation of this metabolite (CYP3A5): minimal

(1S,3S)‐3‐hydroxymaraviroc [(1S,3S)-3-hydroxymaraviroc]
mean MRAUC12 across all cohorts [1]: comparable
CYP3A5 contribution to the formation of this metabolite (CYP3A5): minimal

Maraviroc
blacks with viral load <50 copies/mL (HIV‐1 [3]; once-daily maraviroc group): 28%
blacks with viral load <50 copies/mL (HIV‐1 [3]; twice-daily maraviroc group): 26%
Cavg associated with near-maximal virologic efficacy (HIV‐1 [4]): 75 ng/mL
subjects who discontinued the study because of lack of efficacy (HIV‐1 [2]; EMs (4/43)): 9.3%
subjects who discontinued the study because of lack of efficacy (HIV‐1 [2]; IMs (8/85)): 9.4%
subjects who discontinued the study because of lack of efficacy (HIV‐1 [2]; PMs (25/175)): 14.3%
Proportion of subjects with HIV-1 RNA <50 copies/mL (HIV‐1 [2]; [13]): 30/43 (69.8) %
Proportion of subjects with HIV-1 RNA <400 copies/mL (HIV‐1 [2]; [13]): 32/43 (74.4) %
Proportion of subjects with HIV-1 RNA <50 copies/mL (HIV‐1 [2]; [14]): 53/85 (62.4) %
Proportion of subjects with HIV-1 RNA <400 copies/mL (HIV‐1 [2]; [14]): 61/85 (71.8) %
Proportion of subjects with HIV-1 RNA <50 copies/mL (HIV‐1 [2]; [15]): 126/175 (72.0) %
Proportion of subjects with HIV-1 RNA <400 copies/mL (HIV‐1 [2]; [15]): 132/175 (75.4) %
Proportion of subjects with HIV-1 RNA <50 copies/mL (HIV‐1 [2]; [16]): 209/303 (69.0) %
Proportion of subjects with HIV-1 RNA <400 copies/mL (HIV‐1 [2]; [16]): 225/303 (74.3) %
Proportion of subjects with HIV-1 RNA <50 copies/mL (HIV‐1 [2]; [17]): 23/43 (53.5) %
Proportion of subjects with HIV-1 RNA <400 copies/mL (HIV‐1 [2]; [17]): 26/43 (60.5) %
Proportion of subjects with HIV-1 RNA <50 copies/mL (HIV‐1 [2]; [18]): 47/85 (55.3) %
Proportion of subjects with HIV-1 RNA <400 copies/mL (HIV‐1 [2]; [18]): 52/85 (61.2) %
Proportion of subjects with HIV-1 RNA <50 copies/mL (HIV‐1 [2]; [19]): 109/175 (62.3) %
Proportion of subjects with HIV-1 RNA <400 copies/mL (HIV‐1 [2]; [19]): 117/175 (66.9) %
Proportion of subjects with HIV-1 RNA <50 copies/mL (HIV‐1 [2]; [20]): 179/303 (59.1) %
Proportion of subjects with HIV-1 RNA <400 copies/mL (HIV‐1 [2]; [20]): 195/303 (64.4) %
proportions of subjects with HIV-1 RNA <50 and <400 copies/mL among all 3 CYP3A5 genotypes (HIV‐1 [2]; weeks 48 and 96): comparable
in vivo concentration for 50% inhibition (HIV): ~8 ng/mL
